In assay [1] the target is T1, Histone-arginine methyltransferase CARM1 (Homo sapiens, UniProt Q86X55).
T1 sequence (Q86X55 whole entry): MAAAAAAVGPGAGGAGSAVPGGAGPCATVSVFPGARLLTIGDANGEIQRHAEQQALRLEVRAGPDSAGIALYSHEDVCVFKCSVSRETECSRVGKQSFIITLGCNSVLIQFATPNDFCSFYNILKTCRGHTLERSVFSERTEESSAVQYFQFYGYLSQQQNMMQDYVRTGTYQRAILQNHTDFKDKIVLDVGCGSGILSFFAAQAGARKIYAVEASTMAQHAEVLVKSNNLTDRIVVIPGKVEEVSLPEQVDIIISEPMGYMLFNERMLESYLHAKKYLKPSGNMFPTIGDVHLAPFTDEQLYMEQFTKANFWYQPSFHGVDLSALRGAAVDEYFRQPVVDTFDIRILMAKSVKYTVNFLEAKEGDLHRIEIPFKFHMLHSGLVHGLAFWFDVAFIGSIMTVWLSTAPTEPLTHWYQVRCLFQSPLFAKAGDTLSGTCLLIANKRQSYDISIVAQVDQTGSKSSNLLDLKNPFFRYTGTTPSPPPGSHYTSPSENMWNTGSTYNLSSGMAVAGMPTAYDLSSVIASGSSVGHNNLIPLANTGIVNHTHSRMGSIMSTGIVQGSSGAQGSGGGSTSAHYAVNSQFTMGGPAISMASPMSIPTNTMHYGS
The assay is described as follows: Inhibition of PRMT4 (unknown origin) using histone H3 (21 to 44 residues) as substrate measured after 60 mins in presence of SAM by AlphaLisa assay. (In general: In Alpha technology, singlet oxygen from a donor bead excites a nearby acceptor bead.)

In assay [2] the target is T1, Histone-arginine methyltransferase CARM1. As to the kind of experiment: Inhibition of PRMT4 (unknown origin) using biotinylated […] (1 to 24 residues) as substrate in presence of [3H]SAM by scintillation proximity assay. For orientation: In a scintillation proximity assay essentially only radioactivity close to the scintillant gives light.
In assay [3] the target is Protein arginine N-methyltransferase 8 (Homo sapiens, UniProt Q9NR22). The assay is described as follows: Inhibition of PRMT8 (unknown origin) using biotinylated histone H4 (1 to 24 residues) as substrate in presence of [3H]SAM by scintillation proximity assay.
The target in assay [4] is Protein arginine N-methyltransferase 6 (Homo sapiens, UniProt Q96LA8). The assay is described as follows: Inhibition of PRMT6 (unknown origin) preincubated for 15 mins followed by substrate addition and measured after 60 mins by AlphaLisa assay.
Sequence of Protein arginine N-methyltransferase 6 (Q96LA8 whole entry): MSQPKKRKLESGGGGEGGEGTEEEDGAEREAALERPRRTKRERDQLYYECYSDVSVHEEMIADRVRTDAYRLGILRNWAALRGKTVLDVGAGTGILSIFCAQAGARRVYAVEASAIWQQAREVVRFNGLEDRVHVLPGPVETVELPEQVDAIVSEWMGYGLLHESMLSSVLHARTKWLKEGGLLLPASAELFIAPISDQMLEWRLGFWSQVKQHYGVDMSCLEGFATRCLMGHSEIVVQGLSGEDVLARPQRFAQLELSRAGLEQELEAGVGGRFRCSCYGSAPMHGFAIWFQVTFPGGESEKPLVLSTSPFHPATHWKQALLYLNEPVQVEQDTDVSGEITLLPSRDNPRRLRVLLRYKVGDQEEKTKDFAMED

Sequence of Protein arginine N-methyltransferase 8 (Q9NR22 whole entry, the tested form may be a part): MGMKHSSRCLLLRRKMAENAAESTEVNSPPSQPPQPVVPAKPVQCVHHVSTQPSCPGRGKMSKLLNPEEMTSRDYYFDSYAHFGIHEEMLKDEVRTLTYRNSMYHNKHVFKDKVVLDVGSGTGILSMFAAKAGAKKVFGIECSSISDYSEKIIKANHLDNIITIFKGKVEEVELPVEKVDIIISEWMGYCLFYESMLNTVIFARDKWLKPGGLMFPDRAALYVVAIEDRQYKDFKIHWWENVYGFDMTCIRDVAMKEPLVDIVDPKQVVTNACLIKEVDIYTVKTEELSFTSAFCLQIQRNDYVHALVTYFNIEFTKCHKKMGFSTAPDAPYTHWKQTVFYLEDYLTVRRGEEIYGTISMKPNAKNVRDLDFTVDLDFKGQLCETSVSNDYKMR

Consider `CNCC(O)CN1CCc2cc(Br)ccc2C1` (stereo unspecified), for which the IC50 (usually the concentration at which inhibition is half-maximal) in assay [1] is 4480 nM.

`CNCC(O)CN1CCc2c(cccc2NC(=O)c2ccccc2)C1` (stereo unspecified): in assay [1], the IC50 is 6120 nM.

Take `CNCC(O)CN1CCc2ccccc2C1` (stereo unspecified): in assay [1], the IC50 amounted to 5310 nM. Same read-out and setting: under `CNCC(O)CN1CCCc2c(Br)cccc2C1` (stereo unspecified) stands 785 nM; under `CNCC(O)CN1CCc2ccccc2CC1` (stereo unspecified), 8340 nM. The same measure, in the same setting: under `CNCC(O)CN1CCc2c(cccc2C(=O)NCc2ccccc2)C1` (stereo unspecified) stands 2130 nM; under `CNCC(O)CN1CCc2c(cccc2NS(=O)(=O)c2ccccc2)C1` (stereo unspecified), 4260 nM. Same read-out and setting: the value for `CNCC(O)CN1CCc2ccc(Br)cc2C1` (stereo unspecified) was 5220 nM; that for `CNCC(O)CN1CCc2c(cccc2Oc2cccc(N)c2)C1` (stereo unspecified) was 3490 nM; that for `CNCC(O)CN1CCc2c(cccc2OCc2ccccc2F)C1` (stereo unspecified) was 254 nM. With `CNCC(O)CN1CCc2c(cccc2OCc2ccc(-c3ccccc3)cc2)C1` (stereo unspecified), the 50% inhibitory concentration (IC50) in assay [1] is 120 nM. Still for that read-out and setting: under `CNCC(O)CN1CCOc2ccccc2C1` (stereo unspecified) stands > 10000 nM.

In the case of `CNCC(O)CN1CCc2c(cccc2NCc2ccccc2)C1` (stereo unspecified), in assay [1], the IC50 was 343 nM. Still for that read-out and setting: under `CNCC(O)CN1CCc2c(cccc2OCc2ccc(C(C)(C)C)cc2)C1` (stereo unspecified) stands 1950 nM; under `CNCC(O)CN1CCc2c(cccc2Oc2cccc(F)c2)C1` (stereo unspecified), 2310 nM; under `CNCC(O)CN1CCc2c(cccc2Oc2ccc(Cl)cc2)C1` (stereo unspecified), 1180 nM. As to `CNCC(O)CN1CCc2c(cccc2OCc2ccc(-c3nccs3)cc2)C1` (racemic), in assay [1], the IC50 was determined as 31 nM. Same read-out and setting: the value for `CNCC(O)CN1CCc2c(cccc2OCc2cccc(F)c2)C1` (stereo unspecified) was 530 nM; that for `CNCC(O)CN1CCc2c(cccc2OCc2ccc(Cl)cc2)C1` (stereo unspecified) was 37 nM. On the same count and under the same terms, the value for `CNCC(O)CN1CCc2c(cccc2-c2ccccc2)C1` (stereo unspecified) was 465 nM; that for `CNCC(O)CN1CCc2c(cccc2Oc2ccc(C#N)cc2)C1` (stereo unspecified) was 2310 nM. The same measure, in the same setting: under `CNCC(O)CN1CCc2c(cccc2Oc2ccc(F)cc2)C1` (stereo unspecified) stands 2610 nM.

For the compound `CC(C)Oc1ccc(-c2c[nH]cc2CN(C)CCN)cc1`, the IC50 in assay [2] and in assay [3] was 4 to 119 nM each time. For the compound `CNCC(O)CN1CCc2cc(Oc3ccccc3)ccc2C1` (stereo unspecified), in assay [1], the IC50 was 900 nM.

For `CNCC(O)CN1CCc2c(cccc2C(=O)Nc2ccccc2)C1` (stereo unspecified), the IC50 in assay [1] worked out at 7980 nM. Regarding `CNCC(O)CN1Cc2ccccc2C1` (stereo unspecified), the IC50 in assay [1] came out at 2460 nM. Still for that read-out and setting: the value for `CNCC(O)CN1CCc2c(cccc2Oc2ccc(F)c(Cl)c2)C1` (stereo unspecified) was 2050 nM; that for `CNCC(O)CN1CCc2c(cccc2Oc2ccccc2F)C1` (stereo unspecified) was 2070 nM. For the compound `CNCC(O)CN1CCc2c(cccc2OCc2ccccc2)C1` (stereo unspecified), in assay [1], the IC50 is 165 nM. Still for that read-out and setting: the value for `CNCC(O)CN1CCc2c(cccc2Oc2ccc(-c3nccs3)cc2)C1` (stereo unspecified) was 279 nM; that for `CNCC(O)CN1CCc2cc(OCc3ccccc3)ccc2C1` (stereo unspecified) was 475 nM. Take `CNCC(O)CN1CCc2c(cccc2Oc2cc(C)cc(C)c2)C1` (stereo unspecified): the IC50 in assay [1] came to 1990 nM.

On to `CNCC(O)CN1CCc2c(cccc2Nc2ccccc2)C1` (stereo unspecified), for which the IC50 in assay [1] worked out at 2110 nM. On the same count and under the same terms, the value for `CNCC(O)CN1CCc2c(cccc2OCc2cccc(-c3nccs3)c2)C1` (racemic) was 43 nM; that for `CNCC(O)CN1CCc2cccc(Br)c2C1` (stereo unspecified) was 772 nM. On the same count and under the same terms, under `CNCC(O)CN1CCc2c(cccc2NC(=O)Nc2ccccc2)C1` (stereo unspecified) stands 3820 nM; under `CNCC(O)CN1CCc2c(cccc2OCc2ccc(C#N)cc2)C1` (stereo unspecified), 305 nM. As to `CNCCN1CCC(OCc2ccccc2)CC1`, the IC50 in assay [1] is 32 nM. On the same count and under the same terms, under `CNCC(O)CN1CCc2c(cccc2Oc2ccccc2)C1` (stereo unspecified) stands 270 nM; under `CNCC(O)CN1CCCc2ccccc2C1` (stereo unspecified), 3190 nM. As for `CNCC(O)CN1CCc2c(Br)cccc2C1` (stereo unspecified), the IC50 came to 130 nM in assay [1] and 41.2 µM in assay [4]. For the compound `CNCC(O)CN1CCc2c(cccc2Oc2cccc(-c3nccs3)c2)C1` (stereo unspecified), the IC50 in assay [1] amounted to 658 nM. `CNC[C@H](O)CN1CCc2c(cccc2OCc2ccc(-c3nccs3)cc2)C1`: in assay [1], the IC50 came out at 101 nM. On the same count and under the same terms, under `CNCC(O)CN1CCc2c(cccc2OCc2ccc(F)cc2)C1` (stereo unspecified) stands 228 nM.

The values above are taken from ChEMBL document CHEMBL4396888, “Design and Synthesis of Potent, Selective Inhibitors of Protein Arginine Methyltransferase 4 against Acute Myeloid Leukemia” (J Med Chem, 2019).
